Patent publication US8026070B2 (priority 2005, dated 2011)
Several values for one entry are separate records, joined by “and”; a condition that tells them apart may be missing. Equal entries are not always repeated. Where two headings read alike, the source gives them in different places.

Test system: human recombinant PrP spiked into human plasma

SMILES	Ratio of Signals (ratio of signals from spiked plasma and only plasma samples)	Effect on detection of spiked human recombinant prion protein in human plasma (all concentrations (1, 10, 100 mM) in the sample preparation buffer)	Effect on detection of spiked human recombinant prion protein in human plasma	Non-specific binding, optical density at 450 nm	Only Plasma, optical density at 450 nm	Plasma with human recombinant PrP, optical density at 450 nm
NC[C@H]1CC[C@H](C(=O)O)CC1 [AMCHA, trans-(aminomethyl)cyclohexanecarboxylic acid]	1.7 and 1.6 and 1.8	enhanced the detection				
NCCCCCC(=O)O [ACA, 6-aminohexanoic acid]	1.3 and 1.4 and 1.7		enhanced the detection	0.4665 and 0.4128 and 0.4549	0.4036 and 0.4098 and 0.3737	0.52 and 0.5723 and 0.6507
